Publication PMC3970981 (Nature chemical biology, 2013)
Values after ≈ are worked out from the molar mass of the structure shown.

Experiments:
[1] = biological target: BioA (7,8-diaminopelargonic acid synthase) (Escherichia coli, UniProt P12995); assay: recombinant BioA activity, bioA auxotroph feeding assay at […]; assay type: biochemical
E. coli MG1655 = assay: microbe, parasite or virus in culture; conditions: Escherichia coli, MG1655, 16 h, read-out: MIC (μg/ml) ^a / −bio

BioA (7,8-diaminopelargonic acid synthase), sequence (P12995 whole entry): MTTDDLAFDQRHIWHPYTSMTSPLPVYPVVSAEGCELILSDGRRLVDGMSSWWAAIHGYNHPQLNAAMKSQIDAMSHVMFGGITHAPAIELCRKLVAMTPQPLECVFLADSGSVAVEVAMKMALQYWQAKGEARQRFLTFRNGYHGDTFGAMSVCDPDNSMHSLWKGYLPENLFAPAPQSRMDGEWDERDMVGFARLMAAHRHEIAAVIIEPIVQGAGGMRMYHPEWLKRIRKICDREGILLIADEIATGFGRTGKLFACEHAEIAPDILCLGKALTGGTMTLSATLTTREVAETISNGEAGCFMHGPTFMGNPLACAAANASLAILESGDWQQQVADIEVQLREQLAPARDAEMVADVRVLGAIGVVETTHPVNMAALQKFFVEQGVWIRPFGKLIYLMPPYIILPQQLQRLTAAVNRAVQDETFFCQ

SMILES | MIC (E. coli MG1655) | other results
NNC(=O)CSc1cccc([N+](=O)[O-])c1 [compound 5] |  | % Inhibition ^b / 10 μM / 100 [1]: 84
NNC(=O)CSc1ccc([N+](=O)[O-])cc1 [compound 6] |  | % Inhibition ^b / 1 μM / 100 [1]: 66
CCCC(=O)NN [compound 21] | > 256 µg/mL | 
CC(=O)NN [compound 23] | 128 µg/mL (≈ 1730 µM) | 
